Target: T1, MD-2 (myeloid differentiation protein 2, rhMD-2) (Homo sapiens, UniProt Q9Y6Y9)
T1 construct: gene LY96; recombinant human MD-2 (rhMD-2, R&D Systems)
T1 sequence (Q9Y6Y9 19-160): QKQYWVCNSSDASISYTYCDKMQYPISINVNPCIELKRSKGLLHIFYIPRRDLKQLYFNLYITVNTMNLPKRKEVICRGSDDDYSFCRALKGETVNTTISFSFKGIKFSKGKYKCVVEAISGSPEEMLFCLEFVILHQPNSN
Experiment: SPR (ProteOn XPR36); supported by bis-ANS displacement and biotin-LPS competition ELISA; R90A and Y102A abolish binding

Kd: 19.1 µM
SMILES: COc1cccc(/C=C/C(=O)c2ccc(O)c(O)c2)c1OC [L2H21, (E)‐2,3‐Dimethoxy‐3′,4′‐dihydroxychalcone]
